The target in assay [1] is Mcl-1 (Homo sapiens, UniProt Q07820). Briefly: Inhibition of Mcl-1 (disruption of Mcl-1/Bim interaction). The following applies: for inhibition at 25 µM / % Inhibition (25 μM) Mcl-1: compound at 25 μM; for inhibition at 50 µM / % Inhibition (50 μM) Mcl-1: compound at 50 μM. The assay is classed as binding. Here is the method:
(§1) In a subsequent study, a structurally diverse library of forty five thio acids and thirty eight sulfonyl azides (identified above) was screened in parallel against Mcl-1 and Bcl-XL using the above mentioned approach. Several potential hit combinations were identified (Table 3). All of these kinetic TGS hit compounds were synthesized (identified above and in Table 3). All the reactions were performed at 20-30 mg scale. The 9-fluorenylmethyl thioester was placed in a 2.0 mL vial and 3.5% DBU/dry DMF solution was added (per 1 μmol of thioester, 4.7 μL, of 3.5% DBU/dry DMF solution was added) and the reaction was stirred for one minute. Then the sulfonylazide (1 eq to thioester) was added to the reaction mixture and immediately bubbling was observed. After the reaction was completed (approximately one minute, monitored by LC-MS) water (200 μL) was added and the pH was adjusted to 7.0 using 1M HCl solution. The reaction mixture was extracted with DCM until there is no product in the aqueous layer (checked by TLC or LC-MS). The product was purified by flash chromatography. Testing of these acylsulfonamides has shown that the hit compounds disrupt the Bcl-XL/Bim or Mcl-1/Bim interaction (Table 3).

The target of assay [2] is Bcl-XL (Homo sapiens, UniProt Q07817). Briefly: Inhibition of Bcl-XL (disruption of Bcl-XL/Bim interaction). The class given is binding. The following applies: for inhibition at 25 µM / % Inhibition (25 μM) Bcl-XL: compound at 25 μM; for inhibition at 50 µM / % Inhibition (50 μM) Bcl-XL: compound at 50 μM. The protocol:
as §1

The structures appear in SMILES notation. pIC50: −log10 of the molar value.

Chain of Mcl-1 (Q07820 whole entry, species assumed): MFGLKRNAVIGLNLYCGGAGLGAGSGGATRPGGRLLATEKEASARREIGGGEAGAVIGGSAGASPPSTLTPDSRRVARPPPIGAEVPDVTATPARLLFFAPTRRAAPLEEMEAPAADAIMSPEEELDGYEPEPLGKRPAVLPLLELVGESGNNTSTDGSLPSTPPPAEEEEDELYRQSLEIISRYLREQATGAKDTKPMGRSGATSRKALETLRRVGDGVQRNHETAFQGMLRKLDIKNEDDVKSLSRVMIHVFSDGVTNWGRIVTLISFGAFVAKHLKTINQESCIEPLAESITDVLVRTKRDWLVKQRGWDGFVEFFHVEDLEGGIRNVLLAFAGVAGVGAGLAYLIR
Chain of Bcl-XL (Q07817 whole entry, species assumed): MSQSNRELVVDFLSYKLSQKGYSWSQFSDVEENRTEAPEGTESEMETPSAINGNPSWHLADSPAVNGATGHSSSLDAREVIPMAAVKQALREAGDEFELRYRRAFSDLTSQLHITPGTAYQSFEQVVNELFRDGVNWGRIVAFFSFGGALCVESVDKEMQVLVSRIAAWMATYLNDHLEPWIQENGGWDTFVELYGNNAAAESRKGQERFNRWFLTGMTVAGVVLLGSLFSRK

On to `COc1cccc(CN(CCSc2ccccc2)Cc2ccc(S(=O)(=O)NC(=O)Cn3c4ccccc4c4ccccc43)cc2)c1` [SZ17TA15], for which the inhibition at 25 µM in assay [1] was 53.3%. Besides, in assay [2], the inhibition at 25 µM was 3% and the inhibition at 50 µM was 12%.
For `CC1(C)CCN(c2ccc(C(=O)NS(=O)(=O)c3ccc(CN(CCSc4ccccc4)Cc4ccc(S(N)(=O)=O)cc4)cc3)cc2)CC1` [SZ10TA2], in assay [1], the pIC50 is 4.80, the inhibition at 25 µM is 41.7% and the inhibition at 50 µM worked out at 94.7%. Moreover, in assay [2], the negative logarithm of the IC50 (pIC50) was 4.36 and the inhibition at 50 µM came to 52.1%.
Consider `Cn1cc(C(=O)c2cccs2)c2cc(C(=O)NS(=O)(=O)c3ccc(CN(CCSc4ccccc4)Cc4ccc5c(c4)OCO5)cc3)ccc21` [SZ31TA45], for which, in assay [1], the “% Inhibition (25 μM) Mcl-1” value came out at 53.8% and the “% Inhibition (50 μM) Mcl-1” value is listed as 40.2%. In assay [2], the “% Inhibition (25 μM) Bcl-XL” value came to 7.2% and the “% Inhibition (50 μM) Bcl-XL” value is on record as less than 2.0%.
For the molecule `COc1cc2c(cc1OC)C(c1ccccc1)N(Cc1ccc(S(=O)(=O)NC(=O)CCCN3C(=O)C(c4ccc(F)cc4F)=C(c4ccc(F)cc4F)C3=O)cc1)CC2` (centres unmarked) [SZ8TA20], the inhibition at 25 µM in assay [1] is 23.5%. In assay [2], the inhibition at 25 µM is 9.1% and the inhibition at 50 µM was less than 2%.
In the case of `O=C(NS(=O)(=O)c1ccc(CN(CCSc2ccccc2)Cc2ccc3c(c2)OCO3)cc1)c1ccc(OC(F)(F)F)cc1` [SZ31TA8], in assay [1], the pIC50 is 5.23, the inhibition at 25 µM stood at 61.2% and the inhibition at 50 µM is greater than 99%. For the same molecule, the inhibition at 25 µM in assay [2] was found to be 9.5%.
On to `NS(=O)(=O)c1ccc(CN(CCSc2ccccc2)Cc2ccc(S(=O)(=O)NC(=O)CCCN3C(=O)C(c4ccc(F)cc4F)=C(c4ccc(F)cc4F)C3=O)cc2)cc1` [SZ10TA20], for which, in assay [1], the inhibition at 25 µM turned out to be 27.8% and the inhibition at 50 µM is 7.6%. Besides, in assay [2], the inhibition at 25 µM was determined as 3.8% and the inhibition at 50 µM was less than 2%.
In the case of `Cc1nc(-c2ccccc2)sc1C(=O)NS(=O)(=O)c1ccc(CN(CCSc2ccccc2)Cc2ccc(S(=O)(=O)N=[N+]=[N-])cc2)cc1` [SZ9TA3], the pIC50 in assay [1] is 4.64. The inhibition at 50 µM in assay [1] is 83.1%; in assay [2], 21.6%.
Regarding `O=C(NS(=O)(=O)c1ccc(CN(CCSc2ccccc2)Cc2ccc3c(c2)OCO3)cc1)c1cccc(NCCc2ccccc2)c1` [SZ31TA44], in assay [1], the “% Inhibition (25 μM) Mcl-1” value was 14.9% and the “% Inhibition (50 μM) Mcl-1” value was 36.5%. In assay [2], the “% Inhibition (25 μM) Bcl-XL” value is recorded as less than 2.0% and the “% Inhibition (50 μM) Bcl-XL” value was less than 2.0%.
Regarding `COc1ccc(Cc2ccc(C(=O)NS(=O)(=O)c3ccc(CN(CCSc4ccccc4)Cc4c(F)cccc4Cl)cc3)cc2)c(OC)c1OC` [SZ15TA24], in assay [1], the “% Inhibition (25 μM) Mcl-1” value was found to be 54.4% and the “% Inhibition (50 μM) Mcl-1” value is given as 70.8%. In assay [2], the “% Inhibition (25 μM) Bcl-XL” value is given as 14.7% and the “% Inhibition (50 μM) Bcl-XL” value is 18.9%.
As for `O=C(NS(=O)(=O)c1ccc(CN2CCN(c3ccccc3)CC2)cc1)c1ccc2c(ccn2Cc2ccc(C(F)(F)F)cc2C(F)(F)F)c1` [SZ1TA30], in assay [1], the “% Inhibition (25 μM) Mcl-1” value is 11.8% and the “% Inhibition (50 μM) Mcl-1” value stood at 2.6%. Besides, in assay [2], the “% Inhibition (25 μM) Bcl-XL” value is reported as less than 2.0% and the “% Inhibition (50 μM) Bcl-XL” value is recorded as less than 2.0%.
For the molecule `NS(=O)(=O)c1ccc(CN(CCSc2ccccc2)Cc2ccc(S(=O)(=O)NC(=O)Cn3c4ccccc4c4ccccc43)cc2)cc1` [SZ10TA15], in assay [1], the “% Inhibition (25 μM) Mcl-1” value is listed as 35.2% and the “% Inhibition (50 μM) Mcl-1” value came out at 37.4%. In addition, in assay [2], the “% Inhibition (25 μM) Bcl-XL” value was found to be 9.4% and the “% Inhibition (50 μM) Bcl-XL” value is recorded as less than 2.0%.
Taken in the same sequence, the figures for `COc1cccc(CN(CCSc2ccccc2)Cc2ccc(S(=O)(=O)NC(=O)c3ccc(CCc4ccccn4)cc3)cc2)c1` [SZ17TA17] were 73.9%, 89.0%, 68.1% and 58.4%.
Turning to `O=C(NS(=O)(=O)CCN(CCSc1ccccc1)Cc1ccc2c(c1)OCO2)c1ccc2c(ccn2Cc2ccc(C(F)(F)F)cc2C(F)(F)F)c1` [SZ28TA30], in assay [1], the “% Inhibition (25 μM) Mcl-1” value is 42.8% and the “% Inhibition (50 μM) Mcl-1” value turned out to be 60.5%. For the same molecule, in assay [2], the “% Inhibition (25 μM) Bcl-XL” value is on record as 9.7% and the “% Inhibition (50 μM) Bcl-XL” value is reported as less than 2.0%.
Take `O=C(NS(=O)(=O)c1ccc(CN(CCSc2ccccc2)Cc2c(F)cccc2Cl)cc1)c1ccc(-c2ccc(F)cc2)cc1` [SZ15TA14]: in assay [1], the “% Inhibition (25 μM) Mcl-1” value is recorded as 65.8% and the “% Inhibition (50 μM) Mcl-1” value amounted to 58.8%. In assay [2], the “% Inhibition (25 μM) Bcl-XL” value amounted to 31.1% and the “% Inhibition (50 μM) Bcl-XL” value stood at 23.2%.
For the molecule `[N-]=[N+]=NS(=O)(=O)c1ccc(CN(CCSc2ccccc2)Cc2ccc(S(=O)(=O)NC(=O)c3cccc4ccccc34)cc2)cc1` [SZ9TA7], in assay [1], the negative-log IC50 (pIC50) is 5.09. Also, in assay [2], the inhibition at 50 µM stood at 44.5%.
Taken in the same sequence, the figures for `O=C(NS(=O)(=O)c1ccc(CN(CCSc2ccccc2)Cc2c(F)cccc2Cl)cc1)c1ccccc1` [SZ15TA1] were 5.01 and 53.4%.
Turning to `O=C(NS(=O)(=O)c1ccc(CN2CCN(c3ccccc3)CC2)cc1)c1ccc(-c2ccc(F)cc2)cc1` [SZ1TA14], in assay [1], the “% Inhibition (25 μM) Mcl-1” value amounted to 9.0% and the “% Inhibition (50 μM) Mcl-1” value is reported as 24.4%. For the same molecule, in assay [2], the “% Inhibition (25 μM) Bcl-XL” value is 9.6% and the “% Inhibition (50 μM) Bcl-XL” value is less than 2.0%.
For `O=C(NS(=O)(=O)c1ccc(-c2cc3ccccc3s2)cc1)c1ccc(CN2C(=O)C(c3ccc(F)cc3F)=C(c3ccc(F)cc3F)C2=O)cc1` [SZ37TA42], in that order: less than 2.0%, 22.7%, 21.8% and less than 2.0%.
Consider `CC(C)(C)c1ccc(-c2ccc(S(=O)(=O)NC(=O)c3ccc4c(ccn4Cc4ccc(C(F)(F)F)cc4C(F)(F)F)c3)cc2)cc1` [SZ11TA30], for which, in assay [1], the “% Inhibition (25 μM) Mcl-1” value is listed as 53.1% and the “% Inhibition (50 μM) Mcl-1” value was determined as 63.6%. In assay [2], the “% Inhibition (25 μM) Bcl-XL” value was 8.5% and the “% Inhibition (50 μM) Bcl-XL” value is less than 2.0%.
Take `O=C(NS(=O)(=O)c1ccc(CN(CCSc2ccccc2)Cc2c(F)cccc2Cl)cc1)c1ccc(CCc2ccccn2)cc1` [SZ15TA17]: in assay [1], the pIC50 is 4.69 and the inhibition at 25 µM came out at 79.6%. Besides, in assay [2], the inhibition at 25 µM was found to be 43.4% and the inhibition at 50 µM came out at 60%.
As for `COc1cccc(CN(CCSc2ccccc2)Cc2ccc(S(=O)(=O)NC(=O)CCCN3C(=O)C(c4ccc(F)cc4F)=C(c4ccc(F)cc4F)C3=O)cc2)c1` [SZ17TA20], in assay [1], the “% Inhibition (25 μM) Mcl-1” value is 7.2% and the “% Inhibition (50 μM) Mcl-1” value was 12.4%. In assay [2], the “% Inhibition (25 μM) Bcl-XL” value is less than 2.0% and the “% Inhibition (50 μM) Bcl-XL” value is less than 2.0%.
As to `CN(CCc1ccccc1)Cc1ccc(S(=O)(=O)NC(=O)c2ccc(C(c3c[nH]c4ccccc34)c3c[nH]c4ccccc34)cc2)cc1` [SZ2TA31], in assay [1], the “% Inhibition (25 μM) Mcl-1” value is 14.2% and the “% Inhibition (50 μM) Mcl-1” value is listed as 16.2%. In assay [2], the “% Inhibition (25 μM) Bcl-XL” value is 14.9% and the “% Inhibition (50 μM) Bcl-XL” value amounted to 9.4%.
As to `COc1cccc(CN(CCSc2ccccc2)Cc2ccc(S(=O)(=O)NC(=O)c3ccc(-c4ccc(F)cc4)cc3)cc2)c1` [SZ17TA14], in assay [1], the “% Inhibition (25 μM) Mcl-1” value is on record as 73.9% and the “% Inhibition (50 μM) Mcl-1” value was 46.7%. For the same molecule, in assay [2], the “% Inhibition (25 μM) Bcl-XL” value turned out to be 16.6% and the “% Inhibition (50 μM) Bcl-XL” value was 2.8%.
`O=C(NS(=O)(=O)c1ccc(NCCSc2ccccc2)c([N+](=O)[O-])c1)c1ccc2c(ccn2Cc2ccc(C(F)(F)F)cc2C(F)(F)F)c1` [SZ4TA30]: in assay [1], the pIC50 is 4.58 and the inhibition at 25 µM is 68.7%. Also, in assay [2], the pIC50 is less than 4.30, the inhibition at 25 µM was 41.2% and the inhibition at 50 µM was determined as 42.6%.
Consider `COc1cc2c(cc1OC)C(c1ccccc1)N(CCS(=O)(=O)NC(=O)c1ccc(CN3C(=O)C(c4ccc(F)cc4F)=C(c4ccc(F)cc4F)C3=O)cc1)CC2` (centres unmarked) [SZ27TA42], for which, in assay [1], the “% Inhibition (25 μM) Mcl-1” value is listed as 18.3% and the “% Inhibition (50 μM) Mcl-1” value came out at 52.3%. In assay [2], the “% Inhibition (25 μM) Bcl-XL” value stood at 14.1% and the “% Inhibition (50 μM) Bcl-XL” value is listed as 5.2%.

The inhibition is how much of the control response was suppressed. One may read the pIC50 as the negative decadic logarithm of the IC50, by convention in mol/L.

The values are drawn from patent US10551389B2, “Target binding molecules identified by kinetic target-guided synthesis” (UNIVERSITY OF SOUTH FLORIDA, priority 2013, dated 2020).
